This is an account of results in article PMC9118628, “Synthesis, molecular docking, and cytotoxicity of quinazolinone and dihydroquinazolinone derivatives as cytotoxic agents” (BMC Chemistry, 2022).

The test system of data set [1] is human colon cancer HCT-116 cell line. Kind of data set: MTT cytotoxicity assay, HCT-116. In kind it is cell-based. The protocol:
(§1) The selected compounds 5a–e and 10a–f were evaluated as possible cytotoxic agents against human colon cancer HCT-116 cell line and MCF-7 breast cancer cell line by MTT assay using doxorubicin as the standard drug. […] The IC50 value was calculated from the inhibition rates at the mentioned durations. […] This is because the IC50 values in 72 h with p-value < 0.0001 are less than those in 48 h.
(§2) The human cancer cells MCF-7and HCT-116 as well as Hek-293 as normal cells were purchased from Pastor Institute of Iran. The cells were maintained in RPMI 1640 medium supplemented with 10% heat-inactivated fetal bovine serum (Company: DNAbiotec, Cat number: DB9723), and streptomycin ([…]) and penicillin (100 U/ml) at 37 °C in a humidified atmosphere with 5% CO2 in the air.
(§3) The cytotoxic activities of compounds 5a–e and 10a–f were evaluated against cancerous cell lines. […] The absorbance was read at 570 nm against a test wavelength of 690 nm […]. The inhibition percentage of compounds was calculated as: ODwells treated with DMSO1%–ODwells treated with compounds/ODwells treated with DMSO1%*100 (OD = absorbance). Then, IC50 values were calculated by nonlinear regression analysis.

Data set [2] has as its system MCF-7 breast cancer cell line. In words: MTT cytotoxicity assay, MCF-7. The note with it: Homo sapiens. Type of data set: cell-based. The protocol:
as §1, §2, §3

In data set [3] the test system is Hek-293 cell lines. Kind of data set: MTT toxicity assessment on normal cells. In kind it is cell-based. The note with it: for toxicity against Hek-293 cell lines (in words): Hek-293 normal cells; for IC50: Homo sapiens, HEK293, Hek-293 normal cells, 72 h, read-out: IC50 (µM) Hek-293 after 72 h. The protocol: as §2, §3
Data set [4] relates to PARP10. As to conditions: cited from earlier work.
Where [5] appears, read: HCT-116, 48 h, read-out: IC50 (µM) HCT-116 48 h.
Where [6] appears, read: HCT-116, 72 h, read-out: IC50 (µM) HCT-116 72 h.
Where [7] appears, read: MCF7, MCF-7, 48 h, read-out: IC50 (µM) MCF-7 48 h.
The mark [8] stands for this setting: MCF7, MCF-7, 72 h, read-out: IC50 (µM) MCF-7 72 h.

Like-named read-outs stand apart in the source and are kept apart here.

`O=C1c2ccccc2NC(c2ccc(OCc3cn(Cc4ccc(F)cc4)nn3)cc2)N1Cc1ccccc1` (stereo not drawn) [Compound 10b, 3-benzyl-2-(4-((1-(4-fluorobenzyl)-1H-1,2,3-triazol-4-yl)methoxy)phenyl)-2,3 dihydroquinazolin-4(1H)-one] had a melting point of 83 to 86 °C. In addition, the IC50 in data set [1] (setting [5]) came out at 184 µM. In data set [1] (setting [6]), the IC50 was 64 µM. In addition, in data set [2] (setting [7]), the IC50 was determined as 139 µM. For the same compound, the IC50 in data set [2] (setting [8]) was found to be 98.5 µM.
With `Cc1ccccc1Nc1nc2ccccc2c(=O)n1-c1ccccc1` [Compound 5a, 2-[(2-Methylphenyl)amino]-3-phenylquinazolin-4(3H)-one], the melting point lay within 254 to 258 °C. In data set [1] (setting [5]), the IC50 is 7.15 µM. Also, in data set [1] (setting [6]), the IC50 amounted to 4.87 µM. Further, in data set [3], the “toxicity against Hek-293 cell lines (in words)” value (“toxicity” for short) was “high toxicity” and the IC50 was 8.71 ± 1.23 µM. Further, the IC50 in data set [2] (setting [7]) was 71.2 µM. Moreover, in data set [2] (setting [8]), the half-maximal inhibitory concentration (IC50) came to 14.7 µM.
For the compound `O=C1c2ccccc2NC(c2ccc(OCc3cn(Cc4ccc(Br)cc4)nn3)cc2)N1Cc1ccccc1` (stereo not drawn) [Compound 10d, 3-benzyl-2-(4-((1-(4-bromobenzyl)-1H-1,2,3-triazol-4-yl)methoxy)phenyl)-2,3-dihydroquinazolin-4(1H)-one], the melting point lay within 93 to 95 °C. Besides, the IC50 in data set [1] (setting [5]) is 251 µM. In addition, in data set [1] (setting [6]), the IC50 worked out at 206 µM. Besides, in data set [2] (setting [7]), the IC50 was 44.7 µM. Moreover, the IC50 in data set [2] (setting [8]) was determined as 14.8 µM.
For the compound `Cc1c(-c2ccnc(C(F)(F)F)c2)ccc2c1CCNC2=O` [H], the IC50 in data set [4] was 2700 nM.
Regarding `Cc1ccccc1Cn1cc(COc2ccc(C3Nc4ccccc4C(=O)N3Cc3ccc(F)cc3)cc2)nn1` (stereo not drawn) [Compound 10e, 3-(4-fluorobenzyl)-2-(4-((1-(2-methylbenzyl)-1H-1,2,3-triazol-4-yl)methoxy)phenyl)-2,3-dihydroquinazolin-4(1H)-one], the melting point is 63 to 65 °C. Also, the IC50 in data set [1] (setting [5]) was 48.2 µM. In addition, the IC50 in data set [1] (setting [6]) was 33.3 µM. Further, the IC50 in data set [2] (setting [7]) was 79.1 µM. The IC50 in data set [2] (setting [8]) is 48.8 µM.
Turning to `CC#Cc1ccc2c(=O)[nH]c(CSc3ccc(C(=O)O)cc3)nc2c1` [Compound F], the IC50 in data set [4] was 200 nM.
For the compound `COc1ccc(-n2c(Nc3ccccc3)nc3ccccc3c2=O)cc1` [Compound 5d, 3-(4-methoxyphenyl)-2-(phenylamino)quinazolin-4(3H)-one], the melting point lay within 256 to 259 °C. In addition, in data set [1] (setting [5]), the IC50 was 39.2 µM. Besides, the IC50 in data set [1] (setting [6]) was 17.8 µM. Besides, in data set [3], the “toxicity” value is reported as “low toxicity” and the IC50 came out at 68.1 ± 12.3 µM. Moreover, the IC50 in data set [2] (setting [7]) came out at 28.8 µM. The IC50 in data set [2] (setting [8]) was found to be 25 µM.
For the compound `O=C1c2ccccc2NC(c2ccc(OCc3cn(Cc4ccc(Cl)cc4)nn3)cc2)N1Cc1ccccc1` (stereo not drawn) [Compound 10c, 3-benzyl-2-(4-((1-(4-chlorobenzyl)-1H-1,2,3-triazol-4-yl)methoxy)phenyl)-2,3-dihydroquinazolin-4(1H)-one], the melting point was in the range of 84 to 87 °C. In addition, the IC50 in data set [1] (setting [5]) is 120 µM. Further, the IC50 in data set [1] (setting [6]) came out at 61 µM. Besides, in data set [2] (setting [7]), the IC50 was determined as 52 µM. Further, in data set [2] (setting [8]), the IC50 was found to be 32.3 µM.
For `CC#Cc1ccc2c(=O)[nH]c(CSc3ncccn3)nc2c1` [Compound G], the IC50 in data set [4] is 9300 nM.
In turn, `O=C1c2ccccc2NC(c2ccc(OCc3cn(Cc4ccc(F)cc4)nn3)cc2)N1Cc1ccc(F)cc1` (stereo not drawn) [Compound 10f, 3-(4-fluorobenzyl)-2-(4-((1-(4-fluorobenzyl)-1H-1,2,3-triazol-4-yl)methoxy)phenyl)-2,3-dihydroquinazolin-4(1H)-one] showed a melting point of 69 to 72 °C. Besides, the IC50 in data set [1] (setting [5]) is 40.4 µM. For the same compound, the IC50 in data set [1] (setting [6]) was 10.1 µM. Also, in data set [3], the “toxicity” value is “low toxicity” and the IC50 was determined as 56.1 ± 10.4 µM. The IC50 in data set [2] (setting [7]) is 41.5 µM. Besides, the IC50 in data set [2] (setting [8]) stood at 16.3 µM.
`O=C1c2ccccc2NC(c2ccc(OCc3cn(Cc4ccccc4)nn3)cc2)N1Cc1ccccc1` (stereo not drawn) [Compound 10a, 3-benzyl-2-(4-((1-benzyl-1H-1,2,3-triazol-4-yl)methoxy)phenyl)-2,3-dihydroquinazolin-4(1H)-one] gave a melting point of 65 to 68 °C. Further, the IC50 in data set [1] (setting [5]) amounted to 88.8 µM. Moreover, in data set [1] (setting [6]), the half-maximal inhibitory concentration (IC50) amounted to 29 µM. In addition, in data set [2] (setting [7]), the IC50 was 62.3 µM. Besides, the IC50 in data set [2] (setting [8]) stood at 18.9 µM.
`CC(C)n1c(Nc2ccccc2)nc2ccccc2c1=O` [Compound 5e, 3-isopropyl-2-(phenylamino)quinazolin-4(3H)-one]: the melting point is 143 to 146 °C. In addition, the IC50 in data set [1] (setting [5]) came to 88.7 µM. Also, the IC50 in data set [1] (setting [6]) was 63.3 µM. For the same compound, the IC50 in data set [2] (setting [7]) turned out to be 79 µM. The IC50 in data set [2] (setting [8]) was determined as 42.7 µM.
The like results for `O=c1c2ccccc2nc(Nc2ccccc2)n1CCl` [Compound 5b, 3-(chloromethyl)-2-(phenylamino)quinazolin-4(3H)-one] were, in that order, 194 to 197 °C, 59.3 µM, 37.8 µM, 101 µM and 76.2 µM.
For `COc1cccc2c1C(=O)c1c(O)c3c(c(O)c1C2=O)C[C@@](O)(C(=O)CO)C[C@@H]3O[C@H]1C[C@H](N)[C@H](O)[C@H](C)O1` [DOX, doxorubicin, reference compound], the IC50 worked out at 1.66 µM in data set [1] (setting [5]); 1.2 µM in data set [1] (setting [6]); 0.75 ± 0.09 µM in data set [3]; 1.33 µM in data set [2] (setting [7]); 1.08 µM in data set [2] (setting [8]).
For the compound `O=c1c2ccccc2nc(Nc2ccccc2)n1C1CC1` [Compound 5c, 3-cyclopropyl-2-(phenylamino)quinazolin-4(3H)-one], the melting point fell in the range of 141 to 144 °C. Moreover, the IC50 in data set [1] (setting [5]) was 59.2 µM. Moreover, the IC50 in data set [1] (setting [6]) stood at 29.2 µM. Further, the IC50 in data set [2] (setting [7]) is 74.9 µM. The IC50 in data set [2] (setting [8]) was 50.4 µM.
